Reference: ChEMBL document CHEMBL4257571, “Discovery of 5-(2-chloro-4'-(1H-imidazol-1-yl)-[1,1'-biphenyl]-4-yl)-1H-tetrazole as potent and orally efficacious S-nitrosoglutathione reductase (GSNOR) inhibitors for the potential treatment of COPD” (Bioorg Med Chem Lett, 2018)
Converted amounts (≈) assume the structure as drawn.

Columns and labels:
[1] = Oral bioavailability in C57/BL6 mouse at 30 mg/kg; assay type: ADME, organism-based; settings: in vivo
[2] = Aqueous solubility of compound in fed state simulated intestinal fluid at pH 5.2; assay type: physicochemical
[3] = Aqueous solubility of compound in DMSO; assay type: physicochemical
Mus musculus [4] = experiment: Anti-inflammatory activity in C57BL/6 mouse model of cigarette smoke induced chronic obstructive pulmonary disease assessed as total leukocyte count in bronchoalveolar lavage at 30 mg/kg, po administered once daily for 7 days 1 hr prior to first smoke exposure and measured on day 8 after last smoke exposure post single drug treatment by hemocytometry; assay type: functional
Mus musculus [5] = experiment: Anti-inflammatory activity in C57BL/6 mouse model of cigarette smoke induced chronic obstructive pulmonary disease assessed as total leukocyte count in bronchoalveolar lavage at 10 mg/kg, po administered once daily for 7 days 1 hr prior to first smoke exposure and measured on day 8 after last smoke exposure post single drug treatment by hemocytometry; assay type: functional
[6] = Aqueous solubility of compound in 0.1 N HCl; assay type: physicochemical
Mus musculus [7] = experiment: Anti-inflammatory activity in po dosed C57BL/6 mouse model of cigarette smoke induced chronic obstructive pulmonary disease assessed as reduction in cellular infiltration in bronchoalveolar lavage administered once daily for 7 days 1 hr prior to first smoke exposure and measured on day 8 after last smoke exposure post single drug treatment by hemocytometry; assay type: functional, organism-based
[8] = Clearance in C57/BL6 mouse at 3 mg/kg, iv; assay type: ADME, organism-based; settings: in vivo
Mus musculus [9] = experiment: Anti-inflammatory activity in C57BL/6 mouse model of cigarette smoke induced chronic obstructive pulmonary disease assessed as neutrophil count in bronchoalveolar lavage at 100 mg/kg, po administered once daily for 7 days 1 hr prior to first smoke exposure and measured on day 8 after last smoke exposure post single drug treatment by Leishman's staining based assay; assay type: functional
[10] = Protein binding in mouse plasma at 10 uM by LC/MS/MS based equilibrium dialysis analysis; assay type: ADME, cell-free; settings: read-out: PPB (converted)
[11] = molecular target: Leukotriene B4 receptor 1 (Homo sapiens) (UniProt Q15722); experiment: Displacement of [3H]LTB4 to recombinant human LTB4 receptor at 10 uM after 60 mins by scintillation counting analysis relative to control
Chain of Leukotriene B4 receptor 1 (Homo sapiens) (Q15722 whole entry): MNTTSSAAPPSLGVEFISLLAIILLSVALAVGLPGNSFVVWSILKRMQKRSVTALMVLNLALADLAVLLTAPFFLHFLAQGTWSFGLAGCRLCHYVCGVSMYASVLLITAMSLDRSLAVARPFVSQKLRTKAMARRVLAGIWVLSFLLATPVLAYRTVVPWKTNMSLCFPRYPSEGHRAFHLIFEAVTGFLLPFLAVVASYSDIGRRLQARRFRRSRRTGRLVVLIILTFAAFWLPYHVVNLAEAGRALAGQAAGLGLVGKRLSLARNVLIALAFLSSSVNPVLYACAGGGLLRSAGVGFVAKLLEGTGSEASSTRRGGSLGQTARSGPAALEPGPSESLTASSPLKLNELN

CYP3A4 = CYP3A4 (Homo sapiens, UniProt P08684); experiment: Inhibition of CYP3A4 in human liver microsomes at 10 uM after 20 mins in presence of NADPH by LC/MS/MS analysis relative to control; assay type: ADME; settings: liver microsomes
Chain of CYP3A4 (P08684 whole entry): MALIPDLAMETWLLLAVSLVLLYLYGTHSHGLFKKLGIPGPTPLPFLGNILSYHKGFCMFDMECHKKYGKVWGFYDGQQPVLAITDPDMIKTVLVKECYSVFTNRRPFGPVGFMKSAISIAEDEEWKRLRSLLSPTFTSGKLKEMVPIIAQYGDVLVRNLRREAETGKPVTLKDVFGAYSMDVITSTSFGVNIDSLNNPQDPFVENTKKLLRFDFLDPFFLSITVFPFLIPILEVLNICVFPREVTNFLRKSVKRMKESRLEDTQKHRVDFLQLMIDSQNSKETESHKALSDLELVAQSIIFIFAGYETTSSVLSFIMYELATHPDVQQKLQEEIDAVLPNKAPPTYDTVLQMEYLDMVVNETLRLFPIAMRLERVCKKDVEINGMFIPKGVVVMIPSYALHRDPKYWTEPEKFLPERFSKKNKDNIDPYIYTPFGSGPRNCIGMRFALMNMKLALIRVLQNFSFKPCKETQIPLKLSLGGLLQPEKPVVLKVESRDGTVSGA

[12] = Aqueous solubility of compound in acetate buffer at pH 4.5; assay type: physicochemical
Homo sapiens [13] = organism: Homo sapiens; experiment: Inhibition of BZD receptor (unknown origin) at 10 uM relative to control
[14] = molecular target: Alcohol dehydrogenase class-3 (Rattus norvegicus, UniProt P12711); experiment: Inhibition of rat GSNOR assessed as reduction in NADH consumption after 3 mins by spectrophotometric analysis
Chain of Alcohol dehydrogenase class-3 (Rattus norvegicus, UniProt P12711) (P12711 whole entry): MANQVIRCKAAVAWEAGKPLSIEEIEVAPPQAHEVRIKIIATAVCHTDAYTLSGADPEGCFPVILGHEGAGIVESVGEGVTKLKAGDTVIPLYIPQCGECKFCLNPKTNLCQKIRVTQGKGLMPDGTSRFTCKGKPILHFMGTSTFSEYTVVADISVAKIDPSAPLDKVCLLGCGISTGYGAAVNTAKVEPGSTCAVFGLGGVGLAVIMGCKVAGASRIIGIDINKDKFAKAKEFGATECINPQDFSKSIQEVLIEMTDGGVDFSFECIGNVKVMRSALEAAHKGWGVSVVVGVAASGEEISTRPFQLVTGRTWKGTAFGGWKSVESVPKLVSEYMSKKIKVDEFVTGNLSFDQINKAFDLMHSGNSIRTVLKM

[15] = Cmax in C57/BL6 mouse at 30 mg/kg, po; assay type: ADME, organism-based; set-up: dose 30 mg/kg, route oral; settings: in vivo
Mus musculus [16] = experiment: Anti-inflammatory activity in C57BL/6 mouse model of cigarette smoke induced chronic obstructive pulmonary disease assessed as macrophages count in bronchoalveolar lavage at 100 mg/kg, po administered once daily for 7 days 1 hr prior to first smoke exposure and measured on day 8 after last smoke exposure post single drug treatment by Leishman's staining based assay; assay type: functional
[17] = AUC (0 to 24 hrs) in C57/BL6 mouse at 30 mg/kg, po; assay type: ADME, organism-based; set-up: time < 24 hr, dose 30 mg/kg, route oral; settings: in vivo
[18] = Aqueous solubility of compound in phosphate buffer at pH 6.8; assay type: physicochemical
[19] = Efflux ratio of apparent permeability across basolateral to apical side over apical to basolateral side in human Calu3 cells; assay type: ADME, cell-based, Calu-3
Mus musculus [20] = experiment: Anti-inflammatory activity in C57BL/6 mouse model of cigarette smoke induced chronic obstructive pulmonary disease assessed as total leukocyte count in bronchoalveolar lavage at 3 mg/kg, po administered once daily for 7 days 1 hr prior to first smoke exposure and measured on day 8 after last smoke exposure post single drug treatment by hemocytometry; assay type: functional
[21] = molecular target: Alcohol dehydrogenase class-3 (Homo sapiens, UniProt P11766); experiment: Inhibition of human GSNOR assessed as reduction in NADH consumption after 3 mins by spectrophotometric analysis
Chain of Alcohol dehydrogenase class-3 (Homo sapiens, UniProt P11766) (P11766 whole entry): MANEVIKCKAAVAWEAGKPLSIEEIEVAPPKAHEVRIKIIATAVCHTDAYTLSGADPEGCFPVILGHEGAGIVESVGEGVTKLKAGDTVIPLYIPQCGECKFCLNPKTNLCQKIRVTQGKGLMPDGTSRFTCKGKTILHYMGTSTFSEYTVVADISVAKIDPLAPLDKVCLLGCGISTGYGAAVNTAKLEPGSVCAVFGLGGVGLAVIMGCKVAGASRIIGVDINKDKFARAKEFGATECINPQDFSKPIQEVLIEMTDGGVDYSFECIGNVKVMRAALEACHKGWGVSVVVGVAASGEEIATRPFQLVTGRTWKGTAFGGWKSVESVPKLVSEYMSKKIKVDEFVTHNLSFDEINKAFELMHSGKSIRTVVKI

Mus musculus [22] = experiment: Anti-inflammatory activity in C57BL/6 mouse model of cigarette smoke induced chronic obstructive pulmonary disease assessed as neutrophil count in bronchoalveolar lavage at 30 mg/kg, po administered once daily for 7 days 1 hr prior to first smoke exposure and measured on day 8 after last smoke exposure post single drug treatment by Leishman's staining based assay; assay type: functional
Homo sapiens [23] = organism: Homo sapiens; experiment: Inhibition of chloride channel (unknown origin) at 10 uM relative to control
[24] = Volume of distribution in C57/BL6 mouse at 3 mg/kg, iv; assay type: ADME, organism-based; settings: in vivo, read-out: Vz
CYP2C19 = CYP2C19 (Homo sapiens, UniProt P33261); experiment: Inhibition of CYP2C19 in human liver microsomes at 10 uM after 40 mins in presence of NADPH by LC/MS/MS analysis relative to control; assay type: ADME
Chain of CYP2C19 (P33261 whole entry): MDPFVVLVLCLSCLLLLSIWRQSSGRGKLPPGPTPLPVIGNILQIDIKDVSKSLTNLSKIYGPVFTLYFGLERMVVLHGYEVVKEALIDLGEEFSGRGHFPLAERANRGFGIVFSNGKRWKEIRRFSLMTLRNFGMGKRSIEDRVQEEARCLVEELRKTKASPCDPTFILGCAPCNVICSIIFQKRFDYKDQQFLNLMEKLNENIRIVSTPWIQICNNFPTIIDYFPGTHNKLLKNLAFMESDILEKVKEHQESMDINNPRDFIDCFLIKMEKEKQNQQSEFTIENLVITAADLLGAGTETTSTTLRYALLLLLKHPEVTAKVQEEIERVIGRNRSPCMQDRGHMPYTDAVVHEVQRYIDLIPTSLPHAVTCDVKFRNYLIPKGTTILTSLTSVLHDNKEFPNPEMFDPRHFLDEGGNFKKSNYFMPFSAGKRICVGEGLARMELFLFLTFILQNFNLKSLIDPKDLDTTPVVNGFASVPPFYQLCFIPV

[25] = Half life in C57/BL6 mouse at 3 mg/kg, iv; assay type: ADME, organism-based; settings: in vivo
[26] = Half life in C57/BL6 mouse at 30 mg/kg, po; assay type: ADME, organism-based; settings: in vivo

Clc1cc(-c2nnn[nH]2)ccc1-c1ccc(-n2ccnc2)cc1
bioavailability [1]: 21%
solubility [2]: 0.6 µg/mL (≈ 1.86 µM)
solubility [3]: 20000 µg/mL (≈ 62000 µM)
Activity (Mus musculus [4]): 49%
Activity (Mus musculus [5]): 41%
solubility [6]: 20 µg/mL (≈ 62 µM)
Activity (Mus musculus [7]): Dose-dependent effect
clearance [8]: 1.4 mL/min/kg
Activity (Mus musculus [9]): 47%
fraction unbound at 10 µM [10]: 0.015
inhibition [11]: 64%
inhibition at 20 min, 10 µM (CYP3A4): 55%
solubility [12]: 1.1 µg/mL (≈ 3.41 µM)
inhibition (Homo sapiens [13]): 50%
IC50 [14]: 9.1 nM
Cmax [15]: 8960 ng/mL
Activity (Mus musculus [16]): 61%
AUC(0-t) at 24 h [17]: 69900 ng·h/mL
solubility [18]: 7 µg/mL (≈ 21.7 µM)
efflux ratio [19]: 0.8
Activity (Mus musculus [20]): 32%
IC50 [21]: 9.2 nM
Activity (Mus musculus [22]): 37%
inhibition (Homo sapiens [23]): 50%
Vd [24]: 0.41 L/kg
inhibition at 40 min, 10 µM (CYP2C19): 86%
half-life [25]: 3.4 h
half-life [26]: 6 h
